Experimental data from PubChem BioAssay AID248 (DTP/NCI, 2004).
Values joined by “and” are separate entries in the source; they are usually repeats but may differ in a detail not shown here. Identical values can stand only once. Toxic doses and inconclusive results are not listed. Cut-off read from the data, not from the text of the source: active = T/C of 150% or more; inactive = T/C below 125%.

Tested on: L1210 leukemia ip in BDF1 mice, survival T/C
Assay: NCI In Vivo Anticancer Drug Screen. Data for tumor model L1210 Leukemia (intraperitoneal) in B6D2F1 (BDF1) mice
Conditions: endpoint: mean survival time, higher = longer survival
Procedure, shortened: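 In this screen, tumor-bearing mice given compound are compared to those given vehicle, and their survival values are reported as a treated-to-control quotient.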

Measured: T/C

O=NN(CCCl)C(=O)N[C@H]1CCCC[C@@H]1Cl
active: dose: 5.0 mg/kg/injection, schedule: Q01DX015 (ip), vehicle: other 173 % of control | dose: 6.7 mg/kg/injection, schedule: Q02DX008 (ip), vehicle: other 162 % of control and 208 % of control | dose: 7.6 mg/kg/injection, schedule: Q01DX015 (ip), vehicle: other 277 % of control | dose: 7.62 mg/kg/injection, schedule: Q01DX015 (ip), vehicle: other 485 % of control | dose: 10.2 mg/kg/injection, schedule: Q02DX008 (ip), vehicle: other 242 % of control and 558 % of control | dose: 11.4 mg/kg/injection, schedule: Q01DX015 (ip), vehicle: other 348 % of control and 478 % of control | dose: 12.0 mg/kg/injection, schedule: Q01DX001 (ip), vehicle: other 203 % of control | dose: 13.4 mg/kg/injection, schedule: Q## X004 (ip), vehicle: other 291 % of control and 500 % of control | dose: 13.75 mg/kg/injection, schedule: Q01DX001 (oral), vehicle: other 150 % of control and 164 % of control | dose: 13.75 mg/kg/injection, schedule: Q## X001 (oral), vehicle: other 200 % of control | dose: 15.0 mg/kg/injection, schedule: Q01DX001 (ip), vehicle: other 187 % of control | dose: 15.0 mg/kg/injection, schedule: Q01DX005 (ip), vehicle: other 476 % of control | dose: 15.0 mg/kg/injection, schedule: Q01DX009 (ip), vehicle: other 408 % of control | dose: 15.0 mg/kg/injection, schedule: Q01DX009 (sc), vehicle: other 365 % of control | dose: 15.0 mg/kg/injection, schedule: Q## X003 (ip), vehicle: other 476 % of control | dose: 15.24 mg/kg/injection, schedule: Q02DX008 (ip), vehicle: other 501 % of control | dose: 15.25 mg/kg/injection, schedule: Q01DX001 (ip), vehicle: other 323 % of control | dose: 15.25 mg/kg/injection, schedule: Q## X001 (ip), vehicle: other 156 % of control | dose: 16.0 mg/kg/injection, schedule: Q## X032 (ip), vehicle: other 209 % of control | dose: 17.0 mg/kg/injection, schedule: Q01DX015 (ip), vehicle: other 330 % of control and 527 % of control | dose: 18.0 mg/kg/injection, schedule: Q01DX001 (ip), vehicle: carboxymethylcellulose (CMC) 183 % of control | dose: 19.0 mg/kg/injection, schedule: Q01DX001 (ip), vehicle: carboxymethylcellulose (CMC) 160 % of control | dose: 20.4 mg/kg/injection, schedule: Q## X004 (ip), vehicle: other 590 % of control | dose: 22.8 mg/kg/injection, schedule: Q02DX008 (ip), vehicle: other 433 % of control and 545 % of control | dose: 24.0 mg/kg/injection, schedule: Q01DX001 (ip), vehicle: other 476 % of control | dose: 24.0 mg/kg/injection, schedule: Q01DX001 (oral), vehicle: other 275 % of control | dose: 24.0 mg/kg/injection, schedule: Q01DX001 (sc), vehicle: other 267 % of control | dose: 24.0 mg/kg/injection, schedule: Q## X008 (oral), vehicle: other 165 % of control | dose: 24.0 mg/kg/injection, schedule: Q## X024 (oral), vehicle: other 270 % of control | dose: 24.0 mg/kg/injection, schedule: Q## X032 (ip), vehicle: other 470 % of control | dose: 26.0 mg/kg/injection, schedule: Q01DX001 (ip), vehicle: carboxymethylcellulose (CMC) 209 % of control and 243 % of control | dose: 27.0 mg/kg/injection, schedule: Q01DX001 (ip), vehicle: other 409 % of control | dose: 27.5 mg/kg/injection, schedule: Q01DX001 (oral), vehicle: other 263 % of control and 297 % of control | dose: 27.5 mg/kg/injection, schedule: Q## X001 (oral), vehicle: other 438 % of control | dose: 28.0 mg/kg/injection, schedule: Q## X001 (oral), vehicle: other 340 % of control | dose: 30.0 mg/kg/injection, schedule: Q01DX005 (ip), vehicle: other 203 % of control | dose: 30.0 mg/kg/injection, schedule: Q01DX005 (oral), vehicle: other 255 % of control | dose: 30.0 mg/kg/injection, schedule: Q01DX009 (sc), vehicle: other 200 % of control | dose: 30.0 mg/kg/injection, schedule: Q## X003 (ip), vehicle: other 357 % of control | dose: 30.0 mg/kg/injection, schedule: Q## X003 (oral), vehicle: other 452 % of control | dose: 30.5 mg/kg/injection, schedule: Q01DX001 (ip), vehicle: carboxymethylcellulose (CMC) 303 % of control | dose: 30.5 mg/kg/injection, schedule: Q01DX001 (ip), vehicle: other 186 % of control and 230 % of control | dose: 30.5 mg/kg/injection, schedule: Q## X001 (ip), vehicle: other 205 % of control | dose: 30.5 mg/kg/injection, schedule: Q## X004 (ip), vehicle: other 525 % of control | dose: 34.0 mg/kg/injection, schedule: Q02DX008 (ip), vehicle: other 285 % of control and 398 % of control | dose: 36.0 mg/kg/injection, schedule: Q01DX001 (ip), vehicle: carboxymethylcellulose (CMC) 259 % of control | dose: 40.0 mg/kg/injection, schedule: Q01DX001 (ip), vehicle: carboxymethylcellulose (CMC) 235 % of control and 238 % of control | dose: 41.0 mg/kg/injection, schedule: Q01DX001 (ip), vehicle: other 590 % of control | dose: 41.0 mg/kg/injection, schedule: Q## X001 (oral), vehicle: other 403 % of control | dose: 45.6 mg/kg/injection, schedule: Q## X004 (ip), vehicle: other 289 % of control and 481 % of control | dose: 46.0 mg/kg/injection, schedule: Q01DX001 (ip), vehicle: carboxymethylcellulose (CMC) 329 % of control | dose: 48.0 mg/kg/injection, schedule: Q01DX001 (ip), vehicle: other 384 % of control | dose: 48.0 mg/kg/injection, schedule: Q01DX001 (oral), vehicle: other 476 % of control | dose: 48.0 mg/kg/injection, schedule: Q01DX001 (sc), vehicle: other 382 % of control | dose: 48.0 mg/kg/injection, schedule: Q## X008 (oral), vehicle: other 471 % of control | dose: 48.0 mg/kg/injection, schedule: Q## X024 (oral), vehicle: other 448 % of control | dose: 54.4 mg/kg/injection, schedule: Q## X032 (ip), vehicle: other 377 % of control | dose: 55.0 mg/kg/injection, schedule: Q01DX001 (oral), vehicle: other 174 % of control and 245 % of control | dose: 55.0 mg/kg/injection, schedule: Q## X001 (oral), vehicle: other 204 % of control | dose: 60.0 mg/kg/injection, schedule: Q01DX001 (ip), vehicle: carboxymethylcellulose (CMC) 296 % of control and 304 % of control and 329 % of control | dose: 61.0 mg/kg/injection, schedule: Q01DX001 (ip), vehicle: carboxymethylcellulose (CMC) 329 % of control | dose: 61.0 mg/kg/injection, schedule: Q## X001 (ip), vehicle: other 320 % of control and 527 % of control | dose: 68.0 mg/kg/injection, schedule: Q## X004 (ip), vehicle: other 180 % of control and 221 % of control | dose: 91.5 mg/kg/injection, schedule: Q01DX001 (ip), vehicle: carboxymethylcellulose (CMC) 164 % of control | dose: 91.5 mg/kg/injection, schedule: Q01DX001 (ip), vehicle: other 237 % of control and 491 % of control | dose: 96.0 mg/kg/injection, schedule: Q01DX001 (sc), vehicle: other 420 % of control | dose: 96.0 mg/kg/injection, schedule: Q## X008 (oral), vehicle: other 225 % of control
inactive: dose: 3.0 mg/kg/injection, schedule: Q## X024 (ip), vehicle: other 103 % of control | dose: 3.0 mg/kg/injection, schedule: Q## X024 (oral), vehicle: other 114 % of control | dose: 3.35 mg/kg/injection, schedule: Q01DX015 (ip), vehicle: other 116 % of control | dose: 6.0 mg/kg/injection, schedule: Q01DX001 (oral), vehicle: other 116 % of control | dose: 6.0 mg/kg/injection, schedule: Q01DX001 (sc), vehicle: other 123 % of control | dose: 6.0 mg/kg/injection, schedule: Q## X008 (oral), vehicle: other 122 % of control | dose: 8.0 mg/kg/injection, schedule: Q01DX001 (ip), vehicle: carboxymethylcellulose (CMC) 119 % of control | dose: 12.0 mg/kg/injection, schedule: Q## X008 (oral), vehicle: other 117 % of control | dose: 30.0 mg/kg/injection, schedule: Q01DX009 (ip), vehicle: other 121 % of control | dose: 60.0 mg/kg/injection, schedule: Q01DX009 (sc), vehicle: other 95 % of control | dose: 60.0 mg/kg/injection, schedule: Q## X003 (ip), vehicle: other 105 % of control | dose: 93.0 mg/kg/injection, schedule: Q01DX001 (ip), vehicle: carboxymethylcellulose (CMC) 108 % of control | dose: 96.0 mg/kg/injection, schedule: Q01DX001 (ip), vehicle: other 96 % of control | dose: 120.0 mg/kg/injection, schedule: Q## X003 (oral), vehicle: other 102 % of control

COC(=O)c1ccccc1NC(=O)c1cccc(F)c1
inactive: dose: 100.0 mg/kg/injection, schedule: Q01DX009 (ip), vehicle: Klucel (hydroxypropylcellulose) (HPC) 95 % of control | dose: 200.0 mg/kg/injection, schedule: Q01DX009 (ip), vehicle: Klucel (hydroxypropylcellulose) (HPC) 105 % of control | dose: 400.0 mg/kg/injection, schedule: Q01DX009 (ip), vehicle: Klucel (hydroxypropylcellulose) (HPC) 103 % of control
